Organism: Rattus norvegicus
Experiment: DrugMatrix - Regimen: Daily Repeat
Format: toxicity, organism-based, Sprague-Dawley
Parameters: regimen Daily Repeat, gender Male, age 6-8 weeks
Settings: in vivo, po, route oral GAVAGE, vehicle .5 % CMC; for ABSOLUTE BASOPHIL / ABSOLUTE EOSINOPHIL / ABSOLUTE LYMPHOCYTE / ABSOLUTE MONOCYTE / ABSOLUTE SEGMENTED NEUTROPHIL / BASOPHIL / EOSINOPHIL / ERYTHROCYTE COUNT / HEMATOCRIT / HEMOGLOBIN / LEUKOCYTE COUNT / LYMPHOCYTE / MEAN CORPUSCULAR HEMOGLOBIN / MEAN CORPUSCULAR HEMOGLOBIN CONCENTRATION / MEAN CORPUSCULAR VOLUME / MONOCYTE / NEUTROPHIL / NUCLEATED RED BLOOD CELLS / PLATELET COUNT: tissue Blood; for ALANINE AMINOTRANSFERASE / ALBUMIN / ALKALINE PHOSPHATASE / ASPARTATE AMINOTRANSFERASE / BLOOD UREA NITROGEN / CARBON DIOXIDE / CHLORIDE / CHOLESTEROL / CREATINE PHOSPHOKINASE / CREATININE / GLUCOSE / LACTATE DEHYDROGENASE / LIPASE / PHOSPHORUS / POTASSIUM / SODIUM / TOTAL BILIRUBIN / TOTAL PROTEIN / URIC ACID: tissue Plasma
[1] = 300 mg/kg, 72 h, dose level Low, time 3 day
[2] = 300 mg/kg, 120 h, dose level Low, time 5 day
[3] = 2000 mg/kg, 72 h, dose level High, time 3 day
[4] = 2000 mg/kg, 120 h, dose level High, time 5 day

CC1(C)S[C@@H]2[C@H](NC(=O)[C@H](N)c3ccccc3)C(=O)N2[C@H]1C(=O)O [AMPICILLIN]
ABSOLUTE BASOPHIL [1]: 0 CELLS/uL
ABSOLUTE EOSINOPHIL [1]: 0 CELLS/uL
ABSOLUTE LYMPHOCYTE [1]: 16747 CELLS/uL
ABSOLUTE MONOCYTE [1]: 205.33 CELLS/uL
ABSOLUTE SEGMENTED NEUTROPHIL [1]: 2214.33 CELLS/uL
BASOPHIL [1]: 0%
EOSINOPHIL [1]: 0%
ERYTHROCYTE COUNT [1]: 5.53 x10E6/uL
HEMATOCRIT [1]: 34.2%
HEMOGLOBIN [1]: 13.4 G/DL
LEUKOCYTE COUNT [1]: 19.17 x10E3/uL
LYMPHOCYTE [1]: 87.33%
MEAN CORPUSCULAR HEMOGLOBIN [1]: 24.23 pg
MEAN CORPUSCULAR HEMOGLOBIN CONCENTRATION [1]: 39.17 G/DL
MEAN CORPUSCULAR VOLUME [1]: 61.9 fL
MONOCYTE [1]: 1%
NEUTROPHIL [1]: 11.67%
NUCLEATED RED BLOOD CELLS [1]: 0 /100WBC
PLATELET COUNT [1]: 1348.33 x10E3/uL
ALANINE AMINOTRANSFERASE [1]: 47.67 u/L
ALBUMIN [1]: 4.03 G/DL
ALKALINE PHOSPHATASE [1]: 258.67 u/L
ASPARTATE AMINOTRANSFERASE [1]: 88 u/L
BLOOD UREA NITROGEN [1]: 17.67 mg/dL
CARBON DIOXIDE [1]: 25.67 mmol/L
CHLORIDE [1]: 101.33 MEQ/L
CHOLESTEROL [1]: 82.67 mg/dL
CREATINE PHOSPHOKINASE [1]: 507.67 u/L
CREATININE [1]: 0.28 mg/dL
GLUCOSE [1]: 170 mg/dL
LACTATE DEHYDROGENASE [1]: 299.67 u/L
LIPASE [1]: 9.33 u/L
PHOSPHORUS [1]: 11.7 mg/dL
POTASSIUM [1]: 6.51 MEQ/L
SODIUM [1]: 143.9 MEQ/L
TOTAL BILIRUBIN [1]: 0.17 mg/dL
TOTAL PROTEIN [1]: 5.87 G/DL
URIC ACID [1]: 2.2 mg/dL
ABSOLUTE BASOPHIL [2]: 0 CELLS/uL
ABSOLUTE EOSINOPHIL [2]: 67.33 CELLS/uL
ABSOLUTE LYMPHOCYTE [2]: 16228 CELLS/uL
ABSOLUTE MONOCYTE [2]: 111.33 CELLS/uL
ABSOLUTE SEGMENTED NEUTROPHIL [2]: 1460 CELLS/uL
BASOPHIL [2]: 0%
EOSINOPHIL [2]: 0.33%
ERYTHROCYTE COUNT [2]: 5.55 x10E6/uL
HEMATOCRIT [2]: 34.3%
HEMOGLOBIN [2]: 13.4 G/DL
LEUKOCYTE COUNT [2]: 17.87 x10E3/uL
LYMPHOCYTE [2]: 91%
MEAN CORPUSCULAR HEMOGLOBIN [2]: 24.2 pg
MEAN CORPUSCULAR HEMOGLOBIN CONCENTRATION [2]: 39.1 G/DL
MEAN CORPUSCULAR VOLUME [2]: 61.93 fL
MONOCYTE [2]: 0.67%
NEUTROPHIL [2]: 8%
NUCLEATED RED BLOOD CELLS [2]: 0 /100WBC
PLATELET COUNT [2]: 1271.67 x10E3/uL
ALANINE AMINOTRANSFERASE [2]: 58.33 u/L
ALBUMIN [2]: 4.17 G/DL
ALKALINE PHOSPHATASE [2]: 353 u/L
ASPARTATE AMINOTRANSFERASE [2]: 84.33 u/L
BLOOD UREA NITROGEN [2]: 16 mg/dL
CARBON DIOXIDE [2]: 25.67 mmol/L
CHLORIDE [2]: 103.33 MEQ/L
CHOLESTEROL [2]: 80.33 mg/dL
CREATINE PHOSPHOKINASE [2]: 323.67 u/L
CREATININE [2]: 0.22 mg/dL
GLUCOSE [2]: 150.33 mg/dL
LACTATE DEHYDROGENASE [2]: 269.33 u/L
LIPASE [2]: 10 u/L
PHOSPHORUS [2]: 13 mg/dL
POTASSIUM [2]: 6.3 MEQ/L
SODIUM [2]: 143.7 MEQ/L
TOTAL BILIRUBIN [2]: 0.13 mg/dL
TOTAL PROTEIN [2]: 5.9 G/DL
URIC ACID [2]: 1.67 mg/dL
ABSOLUTE BASOPHIL [3]: 0 CELLS/uL
ABSOLUTE EOSINOPHIL [3]: 156 CELLS/uL
ABSOLUTE LYMPHOCYTE [3]: 12938 CELLS/uL
ABSOLUTE MONOCYTE [3]: 42 CELLS/uL
ABSOLUTE SEGMENTED NEUTROPHIL [3]: 1064 CELLS/uL
BASOPHIL [3]: 0%
EOSINOPHIL [3]: 1.33%
ERYTHROCYTE COUNT [3]: 5.68 x10E6/uL
HEMATOCRIT [3]: 35.27%
HEMOGLOBIN [3]: 13.93 G/DL
LEUKOCYTE COUNT [3]: 14.2 x10E3/uL
LYMPHOCYTE [3]: 90.33%
MEAN CORPUSCULAR HEMOGLOBIN [3]: 24.53 pg
MEAN CORPUSCULAR HEMOGLOBIN CONCENTRATION [3]: 39.5 G/DL
MEAN CORPUSCULAR VOLUME [3]: 62.13 fL
MONOCYTE [3]: 0.33%
NEUTROPHIL [3]: 8%
NUCLEATED RED BLOOD CELLS [3]: 0 /100WBC
PLATELET COUNT [3]: 1229.33 x10E3/uL
ALANINE AMINOTRANSFERASE [3]: 60 u/L
ALBUMIN [3]: 4.2 G/DL
ALKALINE PHOSPHATASE [3]: 309 u/L
ASPARTATE AMINOTRANSFERASE [3]: 77.67 u/L
BLOOD UREA NITROGEN [3]: 18 mg/dL
CARBON DIOXIDE [3]: 32 mmol/L
CHLORIDE [3]: 100.67 MEQ/L
CHOLESTEROL [3]: 94.33 mg/dL
CREATINE PHOSPHOKINASE [3]: 141 u/L
CREATININE [3]: 0.18 mg/dL
GLUCOSE [3]: 140 mg/dL
LACTATE DEHYDROGENASE [3]: 104 u/L
LIPASE [3]: 9.67 u/L
PHOSPHORUS [3]: 11.33 mg/dL
POTASSIUM [3]: 6.92 MEQ/L
SODIUM [3]: 144.13 MEQ/L
TOTAL BILIRUBIN [3]: 0.17 mg/dL
TOTAL PROTEIN [3]: 6 G/DL
URIC ACID [3]: 1.43 mg/dL
ABSOLUTE BASOPHIL [4]: 0 CELLS/uL
ABSOLUTE EOSINOPHIL [4]: 45.67 CELLS/uL
ABSOLUTE LYMPHOCYTE [4]: 13556.33 CELLS/uL
ABSOLUTE MONOCYTE [4]: 151.67 CELLS/uL
ABSOLUTE SEGMENTED NEUTROPHIL [4]: 1413 CELLS/uL
BASOPHIL [4]: 0%
EOSINOPHIL [4]: 0.33%
ERYTHROCYTE COUNT [4]: 5.47 x10E6/uL
HEMATOCRIT [4]: 33.33%
HEMOGLOBIN [4]: 13.37 G/DL
LEUKOCYTE COUNT [4]: 15.17 x10E3/uL
LYMPHOCYTE [4]: 88.67%
MEAN CORPUSCULAR HEMOGLOBIN [4]: 24.47 pg
MEAN CORPUSCULAR HEMOGLOBIN CONCENTRATION [4]: 40.1 G/DL
MEAN CORPUSCULAR VOLUME [4]: 60.97 fL
MONOCYTE [4]: 1%
NEUTROPHIL [4]: 10%
NUCLEATED RED BLOOD CELLS [4]: 0 /100WBC
PLATELET COUNT [4]: 1262.67 x10E3/uL
ALANINE AMINOTRANSFERASE [4]: 63.33 u/L
ALBUMIN [4]: 4.13 G/DL
ALKALINE PHOSPHATASE [4]: 352 u/L
ASPARTATE AMINOTRANSFERASE [4]: 99 u/L
BLOOD UREA NITROGEN [4]: 19.33 mg/dL
CARBON DIOXIDE [4]: 24 mmol/L
CHLORIDE [4]: 106.67 MEQ/L
CHOLESTEROL [4]: 73 mg/dL
CREATINE PHOSPHOKINASE [4]: 430.33 u/L
CREATININE [4]: 0.2 mg/dL
GLUCOSE [4]: 150.33 mg/dL
LACTATE DEHYDROGENASE [4]: 413.67 u/L
LIPASE [4]: 9.67 u/L
PHOSPHORUS [4]: 11.63 mg/dL
POTASSIUM [4]: 6.95 MEQ/L
SODIUM [4]: 148.53 MEQ/L
TOTAL BILIRUBIN [4]: 0.17 mg/dL
TOTAL PROTEIN [4]: 6.03 G/DL
URIC ACID [4]: 1.6 mg/dL

— ChEMBL document CHEMBL3885881, “DrugMatrix”
